Experiments:
[1] = Gravimetric Vapor Sorption (GVS); assay type: physicochemical; details: for solid form by XRPD re-analysis after GVS humidity cycles: reanalysis under ambient conditions, hydrochloride
Protocol: Gravimetric Vapor Sorption (GVS)
Sorption isotherms were obtained using a Hiden IGASorp moisture sorption analyser, controlled by CFRSorp software. The sample temperature was maintained at 25° C. by a Huber recirculating water bath. The humidity was controlled by mixing streams of dry and wet nitrogen, with a total flow rate of 250 ml·min-1. The relative humidity was measured by a calibrated Vaisala RH probe (dynamic range of 0-95% RH), located near the sample. The weight change, (mass relaxation) of the sample as a function of % RH was constantly monitored by themicrobalance (accuracy ±0.001 mg). Typically 1-3 mg of sample was placed in a tared mesh stainless steel basket under ambient conditions. The sample was loaded and unloaded at 40% RH and 25° C. (typical room conditions). A moisture sorption isotherm was performed as outlined below (2 scans giving 1 complete cycle). The standard isotherm was performed at 25° C. at 10% RH intervals over a 0-90% RH range.
The software uses a least squares minimization procedure together with a model of the mass relaxation, to predict an asymptotic value. The measured mass relaxation value must be within 5% of that predicted by the software before the next % RH value is selected. The minimum equilibration time was set to 1 hour and the maximum to 4 hours.

[2] = Storage of solid forms under temperature/humidity or ambient conditions, XRPD re-analysis; assay type: physicochemical; details: for change on storage: 24 hours under ambient conditions
[3] = Thermodynamic Aqueous Solubility by HPLC; assay type: physicochemical
Protocol: Thermodynamic Aqueous Solubility by HPLC
Aqueous solubility was determined by suspending sufficient compound in 0.25 ml of water to give a maximum final concentration of ≧10 mg·ml^−1 of the parent free-form of the compound. The suspension was equilibrated at 25° C. for 24 hours (unless otherwise stated) after which the pH was measured. The suspension was then filtered through a glass fibre C filter into a 96 well plate. The filtrate was then diluted by a factor of 100 times. Quantitation was by HPLC with reference to a standard solution of approximately 0.1 mg·ml-1 in DMSO. Different volumes of the standard, diluted and undiluted sample solutions were injected. The solubility was calculated using the peak areas determined by integration of the peak found at the same retention time as the principal peak in the standard injection.

[4] = pKa Determination (Sirius GlpKa, UV); assay type: physicochemical; details: by UV in aqueous conditions, 25° C.
Protocol: pKa Determination and Prediction
Data were collected on a Sirius GlpKa instrument with a D-PAS attachment. Measurements were made at 25° C. in aqueous solution by UV. The compound was initially dissolved in DMSO at 5 mg/ml of which 50 μl (0.25 mg) was used for the titration from pH 1.3 to 9.0. The titration media was ionic-strength adjusted (ISA) with 0.15 M KCl (aq). The data were refined using Refinement Pro software v1.0. Prediction of pKa values was made using ACD pKa prediction software v9.

[5] = Log P Determination (potentiometric titration, octanol:ISA water); assay type: physicochemical
Description: Data were collected by potentiometric titration on a Sirius GlpKa instrument using three ratios of octanol:ionic-strength adjusted (ISA) water to generate Log P, Log Pion, and Log D values. The data were refined using Refinement Pro software v1.0. Prediction of Log P values was made using ACD v9 and Syracuse KOWWIN v1.67 software.

[6] = Preparation of solutions: solubility of Form 1 in solvents; details: for Volume Added: 50 mg Form 1, aliquots with heating to 50° C. until clear solution
Protocol: Preparation of Solutions of Bendamustine Hydrochloride
50 mg of bendamustine hydrochloride Form 1 was weighed into a screw-top vial. Solvent was added in aliquots (with heating to 50° C.) until a clear solution was obtained.

[7] = Maturation Experiment (slurry of Form 1 in solvents, XRPD); assay type: physicochemical; details: slurry 48 hours, 4 hour periods at 50 C and ambient
Protocol: Approximately 10 mg of Form 1 bendamustine hydrochloride was slurried in the solvents list in Table 3. The slurries were shaken for 48 hours with alternating 4 hour periods at 50 C and ambient temperature. Any solid material was then isolated by filtration and analyzed by XRPD. Solutions were allowed to evaporate.

[8] = Stability of Forms 1 and 2 (temperature/humidity storage, XRPD); assay type: physicochemical; details: for purity after storage: 4° C./87% RH (5) and 60° C./75% RH (13) for 6 weeks; for kinetic stability on storage: 6 weeks at 4° C./34 to 76% RH, 25° C./43 to 75% RH and 60° C./11 to 75% RH
Protocol: Stability of Forms 1 and 2 of Bendamustine Hydrochloride
10 mg of bendamustine hydrochloride Form 1 (A), bendamustine hydrochloride Form 2 (B), and a 1:1 mixture of Forms 1 and 2 (C) were stored under the conditions listed in Table 7. Samples were analyzed by XRPD at 1 day, 2 week, and 6 week time points. […] The rate of this conversion appears to increase with temperature. The purity of Forms 1 and 2 after storage at 4° C./87% RH (5) and 60° C./75% RH (13) for 6 weeks was measured.

[9] = Light Stability (Suntest Light Box); assay type: physicochemical; details: for change in crystallinity and purity during light stress test: 25° C.; for Purity (%): HPLC
Protocol: Light Stability of Bendamustine Hydrochloride
Samples of Form 1 and Form 2 of Bendamustine Hydrochloride were stressed in a Suntest Light Box with a light intensity of 250 watts/m2 for 1 week with the black body temperature set to 25° C. A blank of each sample, wrapped in foil for protection, was also included in the experiment. After the experiment, samples were analyzed by XRPD and the purity was determined by HPLC.

[10] = 1 week at 40° C./75% RH, hydrochloride
[11] = 250 watts/m2, 1 week, hydrochloride
[12] = blank wrapped in foil, 1 week in light box
[13] = light stressed, 250 watts/m2, 1 week, hydrochloride

## Cl.Cn1c(CCCC(=O)O)nc2cc(N(CCCl)CCCl)ccc21 [Form 1, bendamustine hydrochloride]
[1]; GVS, 0 to 90% RH
  hygroscopicity: low hygroscopicity
[1]; between 0 and 90% relative humidity (RH)
  weight increase (hygroscopicity): 0.7%
[1]
  solid form by XRPD re-analysis after GVS humidity cycles: did not lead to a significant change in XRPD pattern
[2]; [10]
  change on storage (XRPD): no significant changes
[2]; 2 months at 25° C./94% RH
  change on storage (XRPD): converted to a hydrate of bendamustine hydrochloride (Form 2)
[2]; 3 weeks at 40° C./11% RH
  change on storage (XRPD): no significant changes
[2]; one month at 25° C./94% RH
  change on storage (XRPD): in the process of converting to Form 2
[3]; saturated aqueous solution of the solubility experiment
  solution pH: 2.16
[3]; water
  degradation of sample in aqueous solubility experiment: significant degradation occurred
[3]; water, 25° C., 24 hours, significant degradation occurred
  aqueous solubility: 4500 µg/mL
[4]
  pKa (Acid): 4.17
[5]; octanol:ISA water
  LogP: 1.10
[5]; pH7.4
  LogD: 0.68
[6]; Acetic acid, 50 mg in 1 ml
  Solution Obtained?: Yes (50° C.)
[6]; Acetic acid
  Volume Added: 1000 µL
[6]; DMA, 50 mg in 500 μl
  Solution Obtained?: Yes (50° C.)
[6]; DMA
  Volume Added: 500 µL
[6]; DMF, 50 mg in 500 μl
  Solution Obtained?: Yes (50° C.)
[6]; DMF
  Volume Added: 500 µL
[6]; DMSO, 50 mg in 100 μl
  Solution Obtained?: Yes (50° C.)
[6]; DMSO
  Volume Added: 100 µL
[6]; Ethanol, 50 mg in 1 ml
  Solution Obtained?: Yes (50° C.)
[6]; Ethanol
  Volume Added: 1000 µL
[6]; Formamide, 50 mg in 1 ml
  Solution Obtained?: Yes (50° C.)
[6]; Formamide
  Volume Added: 1000 µL
[6]; Methanol, 50 mg in 100 μl
  Solution Obtained?: Yes (50° C.)
[6]; Methanol
  Volume Added: 100 µL
[7]; Acetone
  XRPD Analysis after maturation: Form 1
[7]; Acetonitrile
  XRPD Analysis after maturation: Form 1
[7]; Anisole
  XRPD Analysis after maturation: Form 1
[7]; DCM
  XRPD Analysis after maturation: Form 1
[7]; DIPE
  XRPD Analysis after maturation: Form 1
[7]; Diethyl ether
  XRPD Analysis after maturation: Form 1
[7]; Dioxane
  XRPD Analysis after maturation: Form 1
[7]; Ethanol
  XRPD Analysis after maturation: Form 1
[7]; Ethyl acetate
  XRPD Analysis after maturation: Form 1
[7]; Heptane
  XRPD Analysis after maturation: Form 1
[7]; IPA
  XRPD Analysis after maturation: Form 1
[7]; Isopropyl acetate
  XRPD Analysis after maturation: Form 1
[7]; MIBK
  XRPD Analysis after maturation: Form 1
[7]; Methyl acetate
  XRPD Analysis after maturation: Form 1
[7]; Nitromethane
  XRPD Analysis after maturation: Form 1
[7]; TBME
  XRPD Analysis after maturation: Form 1
[7]; THF
  XRPD Analysis after maturation: Form 1
[7]; Toluene
  XRPD Analysis after maturation: Form 1
[7]; Water
  XRPD Analysis after maturation: degradant
[8]
  purity after storage: No large purity decreases
  kinetic stability on storage: kinetically stable
[8]; 60° C./95% RH, 25° C. 94% RH and possibly 4° C./88% RH for 6, 6 and 2 weeks respectively
  form conversion on storage at high humidity: conversion of Form 1 to 2
[8]; ~90% RH, rate appears to increase with temperature
  form conversion under high humidity conditions: conversion of Form 1 of bendamustine hydrochloride to Form 2 was observed
[9]; [11]
  change in crystallinity and purity during light stress test: only a slight decrease in purity
[9]; as compared to Form 2
  stability to degradation in light: more stable to degradation in light
[9]; [12]
  XRPD: No change
[9]; blank wrapped in foil, 1 week in light box, listed as Form 1 blank, hydrochloride
  Purity (%): 97.3%
[9]; [13]
  Purity (%): 95.9%
  XRPD: No change (sample brown in colour)

## Cl.Cn1c(CCCC(=O)O)nc2cc(N(CCCl)CCCl)ccc21 [Form 4, bendamustine hydrochloride]
[2]; hydrochloride
  change on storage: converted to Form 2

## Cl.Cn1c(CCCC(=O)O)nc2cc(N(CCCl)CCCl)ccc21 [Form 3, bendamustine hydrochloride]
[2]; 1 month under ambient conditions
  change on storage (XRPD): No significant changes
[2]; [10]
  change on storage (XRPD): conversion to Form 2

## Cl.Cn1c(CCCC(=O)O)nc2cc(N(CCCl)CCCl)ccc21 [Form 2, bendamustine hydrochloride]
[1]; between 10 and 15% RH, equating to 1 mole of water
  uptake during GVS analysis: 4%
[1]
  solid form by XRPD re-analysis after GVS humidity cycles: partial conversion occurred
[2]; one month at 40° C./11% RH
  change on storage (XRPD): became less crystalline
[2]; one month at 40° C./75% RH
  change on storage (XRPD): no significant changes
[8]
  purity after storage: No large purity decreases
  kinetic stability on storage: kinetically stable
[8]; after 6 weeks
  conversion of Form 2 to Form 1 on storage: No conversion of Form 2 to Form 1
[9]; [11]
  change in crystallinity and purity during light stress test: significant decrease in both crystallinity and purity
[9]; [12]
  XRPD: No change
[9]; blank wrapped in foil, 1 week in light box, listed as Form 2 blank, hydrochloride
  Purity (%): 95.6%
[9]; [13]
  Purity (%): 68.7%
  XRPD: Less crystalline (sample brown in colour)

## Cl.Cn1c(CCCC(=O)O)nc2cc(N(CCCl)CCCl)ccc21 [Amorphous bendamustine hydrochloride, bendamustine hydrochloride]
[1]
  solid form by XRPD re-analysis after GVS humidity cycles: converted to Form 2
[2]; [10]
  change on storage (XRPD): partial crystallization occurred
[2]; hydrochloride
  change on storage: became gummy
[2]; inferred from 24 hours under ambient conditions
  hygroscopicity: hygroscopic
